From patent US10442796B2, “2,3,5-substituted thiophene compound as protein kinase inhibitor” (KOREA INSTITUTE OF SCIENCE AND TECHNOLOGY, priority 2016, dated 2019)
Changes are numbered by the printed parent chain. Structures can show the parent of a compound that is named as a salt.

Assays:
[1] = molecular target: T1, FLT3-ITD-F691L Ba/F3 cells (Homo sapiens, UniProt P36888, F691L, cells depend on it, form not given); assay: Growth inhibitory activity against Ba/F3 cell line; format: cell-based; details: Ba/F3 expressing FLT3-ITD-F691L; 72 hours; cell titer glo; read-out: IC50 (uM) FLT3-ITD-F691L
T1 sequence (P36888 1-993 F691L): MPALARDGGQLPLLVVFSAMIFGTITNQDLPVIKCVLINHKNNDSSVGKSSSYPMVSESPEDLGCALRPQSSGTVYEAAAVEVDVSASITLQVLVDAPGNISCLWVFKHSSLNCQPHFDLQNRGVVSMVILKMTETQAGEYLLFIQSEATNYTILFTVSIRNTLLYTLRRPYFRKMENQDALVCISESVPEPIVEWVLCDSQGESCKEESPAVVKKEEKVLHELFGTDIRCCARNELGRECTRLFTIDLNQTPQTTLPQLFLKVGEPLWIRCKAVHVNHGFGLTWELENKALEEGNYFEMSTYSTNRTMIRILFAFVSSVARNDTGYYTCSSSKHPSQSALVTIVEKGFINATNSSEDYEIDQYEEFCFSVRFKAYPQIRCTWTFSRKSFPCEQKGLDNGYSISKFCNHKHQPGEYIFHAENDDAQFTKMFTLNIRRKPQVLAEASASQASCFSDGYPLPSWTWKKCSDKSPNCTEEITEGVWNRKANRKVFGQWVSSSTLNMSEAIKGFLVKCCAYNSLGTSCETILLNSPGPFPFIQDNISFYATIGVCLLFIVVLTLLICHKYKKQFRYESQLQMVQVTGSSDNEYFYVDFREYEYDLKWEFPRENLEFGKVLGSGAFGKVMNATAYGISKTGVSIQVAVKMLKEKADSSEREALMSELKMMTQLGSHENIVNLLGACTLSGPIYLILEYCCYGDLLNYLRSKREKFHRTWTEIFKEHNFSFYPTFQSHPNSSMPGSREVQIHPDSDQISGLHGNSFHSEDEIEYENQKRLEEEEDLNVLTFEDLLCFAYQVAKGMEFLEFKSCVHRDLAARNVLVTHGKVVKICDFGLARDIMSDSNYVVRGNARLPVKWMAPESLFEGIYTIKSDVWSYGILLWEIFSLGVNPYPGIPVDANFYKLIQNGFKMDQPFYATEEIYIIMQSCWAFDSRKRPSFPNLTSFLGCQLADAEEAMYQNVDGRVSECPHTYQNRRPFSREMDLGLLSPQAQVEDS
Protocol: (§1) A Ba/F3 cell line expressing an FLT3 mutation gene was cultured in a culture solution including 90% RPMI, 10% FBS, and an antibiotic (Welgene). 100 uL of the Ba/F3 cell line was put into each of 5,000 wells of a TC-treated 96 well plate (SPL), and then 1 uL of a test compound diluted in dimethylsulfoxide (diluted for each 3 paint from a concentration of 1 mM, total 10 concentrations) was each injected thereinto. Thereafter, the resulting cell lines were incubated in a cell culture incubator for 72 hours. 50 uL of a cell titer glo (Promega) solution was added thereto, the resulting mixture was stored at room temperature for 10 minutes, and then the light emission intensity was measured by using a reader (Envision, PerkinElmer). The light emission intensity was shown as a graph for each final concentration of the test compound, and the GI50 value was obtained by using a Prism 5.0 (GraphPad) software.

FLT3-D835Y Ba/F3 cells = molecular target: T2, FLT3-D835Y Ba/F3 cells (Homo sapiens, UniProt P36888, D835Y, cells depend on it); assay: Growth inhibitory activity against Ba/F3 cell line; format: cell-based; details: Ba/F3 expressing FLT3-D835Y; 72 hours; cell titer glo; read-out: IC50 (uM) FLT3-D835Y
T2 sequence (P36888 1-993 D835Y): T1 sequence (P36888 1-993 F691L) with L691F, D835Y
Protocol: as §1

GI50 [1]	GI50 (FLT3-D835Y Ba/F3 cells)	SMILES
0.335 µM	0.197 µM	NC(=O)Nc1cc(C#Cc2ccc(C(F)(F)F)cc2)sc1C(=O)N[C@H]1CCCNC1 [Example 16, ((S)—N-(piperidin-3-yl)-5-((4-(trifluoromethyl)phenyl)ethynyl)-3-ureidothiophene-2-carboxamide trifluoroacetate]
0.075 µM	0.042 µM	NC(=O)Nc1cc(C#Cc2cnn(C3CCOCC3)c2)sc1C(=O)N[C@H]1CCCCNC1 [Example 46, (S)—N-(azepan-3-yl)-5-((1-(tetrahydro-2H-pyran-4-yl)-1H-pyrazol-4-yl)ethynyl)-3-ureidothiophene-2-carboxamide trifluoroacetate]
0.616 µM	0.437 µM	CC(=O)N1CCC(n2cc(C#Cc3cc(NC(N)=O)c(C(=O)N[C@H]4CCCCNC4)s3)cn2)CC1 [Example 49]
19.1 µM	34 µM	Cn1cc(C#Cc2cc(NC(N)=O)c(C(=O)NC3CCNC3)s2)cn1 (stereo not shown) [Example 39, 5-((1-methyl-1H-pyrazol-4-yl)ethynyl)-N-(pyrrolidin-3-yl)-3-ureidothiophene-2-carboxamide trifluoroacetate]
0.214 µM	0.216 µM	CC(C)n1cc(C#Cc2cc(NC(N)=O)c(C(=O)N[C@H]3CCCCNC3)s2)cn1 [Example 44, (S)—N-(azepan-3-yl)-5-((1-isopropyl-1H-pyrazol-4-yl)ethynyl)-3-ureidothiophene-2-carboxamide trifluoroacetate]
0.089 µM	0.07 µM	NC(=O)Nc1cc(C#Cc2ccc([N+](=O)[O-])cc2)sc1C(=O)N[C@H]1CCCNC1 [Example 7, (S)-5-((4-nitrophenyl)ethynyl)-N-(piperidin-3-yl)-3-ureidothiophene-2-carboxamide]
0.004 µM	0.002 µM	NC(=O)Nc1cc(C#Cc2ccccc2)sc1C(=O)N[C@H]1CCCNC1 [Example 2, (S)-5-(phenylethynyl)-N-(piperidin-3-yl)-3-ureidothiophene-2-carboxamide]
0.099 µM	0.05 µM	NC(=O)Nc1cc(C#Cc2cccnc2)sc1C(=O)N[C@H]1CCCNC1 [Example 3, (S)—N-(piperidin-3-yl)-5-(pyridin-3-ylethynyl)-3-ureidothiophene-2-carboxamide]
0.009 µM	0.005 µM	NC(=O)Nc1cc(C#Cc2ccc(F)c(F)c2)sc1C(=O)N[C@H]1CCCNC1 [Example 14, (S)-5-((3,4-difluorophenyl)ethynyl)-N-(piperidin-3-yl)-3-ureidothiophene-2-carboxamide]
1.1 µM	0.408 µM	NC(=O)Nc1cc(C#Cc2ccncc2)sc1C(=O)N[C@H]1CCCNC1 [Example 4, (S)—N-(piperidin-3-yl)-5-(pyridin-4-ylethynyl)-3-ureidothiophene-2-carboxamide]
0.087 µM	0.041 µM	NC(=O)Nc1cc(C#Cc2ccnc(F)c2)sc1C(=O)N[C@H]1CCCNC1 [Example 21, (S)-5-((2-fluoropyridin-4-yl)ethynyl)-N-(piperidin-3-yl)-3-ureidothiophene-2-carboxamide]
0.216 µM	0.268 µM	Cn1cc(C#Cc2cc(NC(N)=O)c(C(=O)N[C@H]3CCCNC3)s2)cn1 [Example 15, (S)-5-((l-methyl-1H-pyrazol-4-yl)ethynyl)-N-(piperidin-3-yl)-3-ureidothiophene-2-carboxamide trifluoroacetate]
0.078 µM	0.092 µM	Cn1cc(C#Cc2cc(NC(N)=O)c(C(=O)N[C@H]3CCCCNC3)s2)cn1 [Example 41, (S)—N-(azepan-3-yl)-5-((1-methyl-1H-pyrazol-4-yl)ethynyl)-3-ureidothiophene-2-carboxamide trifluoroacetate]
0.013 µM	0.01 µM	NC(=O)Nc1cc(C#Cc2ccc(Cl)cc2)sc1C(=O)N[C@H]1CCCNC1 [Example 8, (S)-5-((4-chlorophenyl)ethynyl)-N-(piperidin-3-yl)-3-ureidothiophene-2-carboxamide]
